Source: paper PMC7907166, “AOA-2 Derivatives as Outer Membrane Protein A Inhibitors for Treatment of Gram-Negative Bacilli Infections” (Frontiers in Microbiology, 2021)
Positions of bridges follow the written chain, without caps; N, C: chain ends. Non-standard residues stand in square brackets, D forms with d. Residues, ends and D or L forms follow the SMILES beside them. *: point of attachment. X1 = CC[C@H](C)CCCCC(=O)*; Dab = NCC[C@H](N)C(=O)O

Experiments:
Assay type in all cases: cell-based
A. baumannii ATCC 17978 [1] = settings: colistin alone; microdilution, two independent experiments
Procedure: The minimal inhibitory concentration (MIC) of colistin in absence and presence of RW01 or RW06 at […] for A. baumannii ATCC 17978 strain was determined by microdilution assay in two independent experiments as previously reported ([Parra-Millán et al., 2018]).

[2] = tested on: OmpA-deficient mutant A. baumannii, JPAB01; settings: colistin alone, microdilution
P. aeruginosa PAO1 = experiment: Bacterial adhesion assay to A549 cells; settings: for adherence of P. aeruginosa to A549 cells reduced to: bacteria pre-incubated with peptide 250 μg/mL 30 min, MOI 500, 2 h, CFU count; for adherence of PAO1 strain to A549 cells compared with AOA-2: peptide 125, 62.5 and 31.25 μg/mL, some statistical differences, Figure 2B; for adherence of PAO1 strain to A549 cells (in words): peptide 250 μg/mL, 30 min, Figure 2A
Procedure: (§1) The human pneumocyte cell line type II A549, derived from a human lung carcinoma, obtained from the American Type Culture Collection was used and cultured in DMEM medium (Invitrogen, Spain) supplemented with 10% of heat-inactivated fetal bovine serum, 50 μg/mL vancomycin (Laboratorios Normon, Spain), 20 μg/mL gentamicin (Normon Laboratories, Spain), 0.25 μg/mL amphotericin B mL (Invitrogen, Spain) and 1% HEPES (Invitrogen, Spain) in a humidified incubator, 5% CO2 at 37°C. Routine passage of A549 cells was performed every 3–4 days. Cells were seeded 24 h in 96-well plates (Sarstedt, Germany) for the cell viability assay, and in 24-well plates (Sarstedt, Germany) for the bacterial adhesion assays.
(§2) A. baumannii ATCC 17978, P. aeruginosa PAO1 and E. coli ATCC 25922 strains were incubated with AOA-2 (31.25, 62.5, 125, and 250 μg/mL, 30 min), AOA-2 derivatives RW01, RW02, RW03, RW06, RW07, RW08, RW09, RW10, RW11, and RW13 (250 μg/mL, 30 min), or AOA-2 derivatives RW01, RW02, RW03, RW06 (31.25, 62.5, and 125 μg/mL, 30 min), and added at 10^8 CFU/mL, corresponding to a multiplicity of infection (MOI) of 500, to the A549 cells for 2 h at 5% CO2 and 37°C. Subsequently, infected A549 cells were washed five times with prewarmed PBS 1X and lysed with 0.5% Triton X-100. Serial dilutions of these lysates were made and plated on blood agar plates (Blood-Agar Columbia, Becton Dickinson Microbiology Systems, United States) and incubated at 37°C for 24 h for colony counting and then determination of CFU/mL that attached to A549 cells.

E. coli ATCC 25922 = experiment: Bacterial adhesion assay to A549 cells; settings: for adherence of E. coli to A549 cells reduced to: bacteria pre-incubated with peptide 250 μg/mL 30 min, MOI 500, 2 h, CFU count
Procedure: as §1, §2

A. baumannii ATCC 17978 [3] = experiment: Bacterial adhesion assay to A549 cells; settings: for adherence of A. baumannii to A549 cells reduced to: bacteria pre-incubated with peptide 250 μg/mL 30 min, MOI 500, 2 h, CFU count
Procedure: as §1, §2

[4] = peptide 250 μg/mL, 30 min, Figure 2A

Compound | adherence of P. aeruginosa to A549 cells reduced to (P. aeruginosa PAO1) [%] | adherence of PAO1 strain to A549 cells compared with AOA-2 (P. aeruginosa PAO1) | adherence of E. coli to A549 cells reduced to (E. coli ATCC 25922) [%] | adherence of A. baumannii to A549 cells reduced to (A. baumannii ATCC 17978 [3]) [%] | adherence of PAO1 strain to A549 cells (in words) (P. aeruginosa PAO1) | also measured
CC[C@H](C)CCCCC(=O)N[C@@H](CCN)C(=O)N[C@H](C(=O)N[C@@H](CCN)C(=O)N[C@H]1CCNC(=O)[C@H]([C@@H](C)O)NC(=O)[C@H](CCN)NC(=O)[C@H](CCN)NC(=O)[C@H](CC(C)C)NC(=O)[C@@H](CC(C)C)NC(=O)[C@H](CCN)NC1=O)[C@@H](C)O [colistin, reference compound] (X1-[Dab]T[Dab][Dab][Dab][dL]L[Dab][Dab]T; lactam 4-C (inferred); N-terminus assumed) | – | – | – | – | – | MIC of colistin (A. baumannii ATCC 17978 [1]): 0.5 µg/mL; MIC of colistin [2]: 0.0625 µg/mL
&2Nal-D-Pro-Arg-2Nal-D-Pro-Arg& (head to tail) [RW03, AOA-2 derivative with tryptophan analog 2Nal] | 20.71 | reduced better | 29.62 | 55.47 | – | adherence of ATCC 25922 to host cells compared with AOA-2 (E. coli ATCC 25922; peptide 125, 62.5 and 31.25 μg/mL, Figure 2B): reduced with some statistical differences
&2Nal-D-Pro-Arg-3Pal-D-Pro-Arg& (head to tail) [RW11] | – | – | – | – | reduced | –
&3Pal-D-Pro-Arg-3Pal-D-Pro-Arg& (head to tail) [RW02, AOA-2 derivative with tryptophan analog 3Pal] | 42.51 | reduced better | 61.11 | 43.58 | – | –
&3Pal-D-Pro-Arg-Trp-D-Pro-Tyr& (head to tail) [RW13] | – | – | – | – | reduced | adherence of ATCC 25922 strain to A549 cells (in words) (E. coli ATCC 25922; [4]): reduced
&Arg-D-Pro-Trp-Trp-D-Pro-Arg& (head to tail) [RW08] | – | – | – | – | reduced | adherence of ATCC 17978 strain to A549 cells (in words) (A. baumannii ATCC 17978 [3]; [4]): reduced
